One assay concerns cells in culture. Description: effect of chemotherapeutic agents on cellular conductance and cell number. Type of assay: cell-based. Conditions: 100 ng in each ml of media, DMEM + 10% serum, FIG. 6. On the procedure: FIG. 6 depicts the effect of chemotherapeutic agents on cellular conductance and cell number.
Cells were seeding at a density of 1.0E+5 in 2 ml of DMEM with 10% FBS. The cells were grown and cultured for 24 hours. On day 2 eight wells were counted in a Coulter type counter after harvesting by trypsinization for initial cell count. Additional wells containing cells were examined to confirm cell viability and health by phase microscopy. The media as then aspirated and wells were filled with DMEM+10% serum (control) or DMEM+10% serum containing various concentrations of chemotherapeutic agent (e.g. Methotrexate.). The dose was 100 ng in each ml of media.

In assay [1] the test system is rat primary neonatal explants. Conditions: in vitro; from King et al., Genentech paper; cited from earlier work.

Turning to `CN(Cc1cnc2nc(N)nc(N)c2n1)c1ccc(C(=O)N[C@@H](CCC(=O)O)C(=O)O)cc1` [Methotrexate], the cell number result with cells in culture (Coulter type counter) is recorded as “decreased cell number”. In addition, the cell conductance entry with cells in culture is listed as “decrease in cell conductance”. Consider leukemia inhibitory factor [LIF], for which the “metabolic activity (heart beats) increased” value in assay [1] is 125%. For the molecule prostaglandin F2alpha [PGF], the “metabolic activity (heart beats) increased” value in assay [1] is 54%.

For the molecule `CNC[C@H](O)c1cccc(O)c1` [PE, Phenylephrine], in assay [1], the “metabolic activity (heart beats) increased” value is given as 84%.

The record behind these values is patent US20060256599A1, “Database of electronically profiled cells and methods for generating and using same” (priority 2005, published 2006).
